Conditions: 1.0% DMSO, 24-hour incubation at ambient temperature, maximum theoretical 100 μM; for pH 2 solubility: 0.1N HCl, first value of the cell; for pH 7 solubility: 1×PBS buffer (pH 7.4), second value of the cell

Compound	pH 2 solubility	pH 7 solubility
CC(C)(C#Cc1ccc(-c2ccc(Cl)c3c(N(C(=O)NCCO)S(C)(=O)=O)nn(CC(F)(F)F)c23)c([C@H](Cc2cc(F)cc(F)c2)NC(=O)Cn2nc(C(F)(F)F)c3c2C(F)(F)[C@@H]2C[C@H]32)n1)S(C)(=O)=O [Compound 40, N—((S)-1-(3-(4-chloro-3-(N-((2-hydroxyethyl)carbamoyl)methylsulfonamido)-1-(2,2,2-trifluoroethyl)-1H-indazol-7-yl)-6-(3-methyl-3-(methylsulfonyl)but-1-yn-1-yl)pyridin-2-yl)-2-(3,5-difluorophenyl)ethyl)-2-((3bS,4aR)-5,5-difluoro-3-(trifluoromethyl)-3b,4,4a,5-tetrahydro-1H-cyclopropa[3,4]cyclopenta[1,2-c]pyrazol-1-yl)acetamide]	1 μM	2 μM
CC(C)(C#Cc1ccc(-c2ccc(Cl)c3c(N(C(=O)NCCN4CCOCC4)S(C)(=O)=O)nn(CC(F)(F)F)c23)c([C@H](Cc2cc(F)cc(F)c2)NC(=O)Cn2nc(C(F)(F)F)c3c2C(F)(F)[C@@H]2C[C@H]32)n1)S(C)(=O)=O [Compound 42, N—((S)-1-(3-(4-chloro-3-(N-((2-morpholinoethyl)carbamoyl)methylsulfonamido)-1-(2,2,2-trifluoroethyl)-1H-indazol-7-yl)-6-(3-methyl-3-(methylsulfonyl)but-1-yn-1-yl)pyridin-2-yl)-2-(3,5-difluorophenyl)ethyl)-2-((3bS,4aR)-5,5-difluoro-3-(trifluoromethyl)-3b,4,4a,5-tetrahydro-1H-cyclopropa[3,4]cyclopenta[1,2-c]pyrazol-1-yl)acetamide]	62 μM	5 μM
CC(C)(C#Cc1ccc(-c2ccc(Cl)c3c(N(C(=O)CCN4CCOCC4)S(C)(=O)=O)nn(CC(F)(F)F)c23)c([C@H](Cc2cc(F)cc(F)c2)NC(=O)Cn2nc(C(F)(F)F)c3c2C(F)(F)[C@@H]2C[C@H]32)n1)S(C)(=O)=O [Compound 5, N-(4-chloro-7-(2-((S)-1-(2-((3bS,4aR)-5,5-difluoro-3-(trifluoromethyl)-3b,4,4a,5-tetrahydro-1H-cyclopropa [3,4]cyclopenta [1,2-c]pyrazol-1-yl)acetamido)-2-(3,5-difluorophenyl)ethyl)-6-(3-methyl-3-(methylsulfonyl)but-1-yn-1-yl)pyridin-3-yl)-1-(2,2,2-trifluoroethyl)-1H-indazol-3-yl)-N-(methylsulfonyl)-3-morpholinopropanamide]	39 μM	9 μM
CC(C)(C#Cc1ccc(-c2ccc(Cl)c3c(N(COP(=O)(O)O)S(C)(=O)=O)nn(CC(F)(F)F)c23)c([C@H](Cc2cc(F)cc(F)c2)NC(=O)Cn2nc(C(F)(F)F)c3c2C(F)(F)[C@@H]2C[C@H]32)n1)S(C)(=O)=O [Compound 23, (N-(4-chloro-7-(2-((S)-1-(2-((3bS,4aR)-5,5-difluoro-3-(trifluoromethyl)-3b,4,4a,5-tetrahydro-1H-cyclopropa[3,4]cyclopenta[1,2-c]pyrazol-1-yl)acetamido)-2-(3,5-difluorophenyl)ethyl)-6-(3-methyl-3-(methylsulfonyl)but-1-yn-1-yl)pyridin-3-yl)-1-(2,2,2-trifluoroethyl)-1H-indazol-3-yl)methylsulfonamido)methyl dihydrogen phosphate]	6 μM	100 μM
CC(C)(C#Cc1ccc(-c2ccc(Cl)c3c(N(C(=O)NC(COC(=O)C(=O)O)COC(=O)C(=O)O)S(C)(=O)=O)nn(CC(F)(F)F)c23)c([C@H](Cc2cc(F)cc(F)c2)NC(=O)Cn2nc(C(F)(F)F)c3c2C(F)(F)[C@@H]2C[C@H]32)n1)S(C)(=O)=O [Compound 37, 2,2′-((2-(3-(4-chloro-7-(2-((S)-1-(2-((3bS,4aR)-5,5-difluoro-3-(trifluoromethyl)-3b,4,4a,5-tetrahydro-1H-cyclopropa[3,4]cyclopenta[1,2-c]pyrazol-1-yl)acetamido)-2-(3,5-difluorophenyl)ethyl)-6-(3-methyl-3-(methylsulfonyl)but-1-yn-1-yl)pyridin-3-yl)-1-(2,2,2-trifluoroethyl)-1H-indazol-3-yl)-3-(methylsulfonyl)ureido)propane-1,3-diyl)bis(oxy))bis(2-oxoacetic acid)]	3 μM	18 μM

Continued, values first:

pH 2 solubility	pH 7 solubility	Compound
1 μM	2 μM	CN(CCO)C(=O)N(c1nn(CC(F)(F)F)c2c(-c3ccc(C#CC(C)(C)S(C)(=O)=O)nc3[C@H](Cc3cc(F)cc(F)c3)NC(=O)Cn3nc(C(F)(F)F)c4c3C(F)(F)[C@@H]3C[C@H]43)ccc(Cl)c12)S(C)(=O)=O [Compound 50, N—((S)-1-(3-(4-chloro-3-(N-((2-hydroxyethyl)(methyl)carbamoyl)methylsulfonamido)-1-(2,2,2-trifluoroethyl)-1H-indazol-7-yl)-6-(3-methyl-3-(methylsulfonyl)but-1-yn-1-yl)pyridin-2-yl)-2-(3,5-difluorophenyl)ethyl)-2-((3bS,4aR)-5,5-difluoro-3-(trifluoromethyl)-3b,4,4a,5-tetrahydro-1H-cyclopropa[3,4]cyclopenta[1,2-c]pyrazol-1-yl)acetamide]
1/1 μM	1/1 μM	CC(C)(C#Cc1ccc(-c2ccc(Cl)c3c(N(C(=O)OCCCCCO)S(C)(=O)=O)nn(CC(F)(F)F)c23)c([C@H](Cc2cc(F)cc(F)c2)NC(=O)Cn2nc(C(F)(F)F)c3c2C(F)(F)[C@@H]2C[C@H]32)n1)S(C)(=O)=O [Compound 103, 5-hydroxypentyl (4-chloro-7-(2-((S)-1-(2-((3bS,4aR)-5,5-difluoro-3-(trifluoromethyl)-3b,4,4a,5-tetrahydro-1H-cyclopropa[3,4]cyclopenta[1,2-c]pyrazol-1-yl)acetamido)-2-(3,5-difluorophenyl)ethyl)-6-(3-methyl-3-(methylsulfonyl)but-1-yn-1-yl)pyridin-3-yl)-1-(2,2,2-trifluoroethyl)-1H-indazol-3-yl)(methylsulfonyl)carbamate]
1/1 μM	1/1 μM	CC(C)(C#Cc1ccc(-c2ccc(Cl)c3c(N(C(=O)OCCO)S(C)(=O)=O)nn(CC(F)(F)F)c23)c([C@H](Cc2cc(F)cc(F)c2)NC(=O)Cn2nc(C(F)(F)F)c3c2C(F)(F)[C@@H]2C[C@H]32)n1)S(C)(=O)=O [Compound 99, 2-hydroxyethyl (4-chloro-7-(2-((S)-1-(2-((3bS,4aR)-5,5-difluoro-3-(trifluoromethyl)-3b,4,4a,5-tetrahydro-1H-cyclopropa[3,4]cyclopenta[1,2-c]pyrazol-1-yl)acetamido)-2-(3,5-difluorophenyl)ethyl)-6-(3-methyl-3-(methylsulfonyl)but-1-yn-1-yl)pyridin-3-yl)-1-(2,2,2-trifluoroethyl)-1H-indazol-3-yl)(methylsulfonyl)carbamate]
